Consider twelve compounds from patent US5159080A, “Indole compounds, a process for their preparation, and pharmaceutical compositions containing them” (Madaus AG, priority 1988, dated 1992).

The test system of assay [1] is guinea pig right auricles. Description: Isolated, spontaneously beating right auricles, chronotropic effect. The following applies: Cavia porcellus, read-out: Maximum effect in % of initial value, RIGHT AURICLE CHRONOTROPIC; for Emax at 2 µg/mL: 2.0 μg/ml; for Emax at 4 µg/mL: 4.0 μg/ml; for Emax at 10 µg/mL: 10.0 μg/ml; for Emax at 20 µg/mL: 20.0 μg/ml; for Emax at 0.5 µg/mL: 0.5 μg/ml. The protocol: (§1) The test process employed is described, inter alia, in: Staff of the Department of Pharmacology, University of Edinburgh (1970): Pharmacological Experiments on Isolated Preparation, Churchill Livingston, Edinburgh, London and New York, page 112.
(§2) Animals having a body weight of about 500 g, were used and were divided into groups of 4 animals each. The compounds to be tested were dissolved in tyrode solution/sodium chloride solution 50:50 v/v and the desired concentration adjusted in the bath liquid. The experiment was carried out in the known manner.

The nature of assay [2]: Change of heart frequency and average blood pressure in narcotized rats (maximum effect over 2 hours). Particulars: Rattus norvegicus, iv, maximum effect over 2 h, hemi-tartrate; for change in vivo at 5 mg/kg: 5 mg/kg i.v.; for change in vivo at 10 mg/kg: 10 mg/kg i.v.; for change in vivo at 20 mg/kg: 20 mg/kg i.v.; for change in vivo at 2 mg/kg: 2 mg/kg i.v.; for change in vivo at 1 mg/kg: 1 mg/kg i.v.; for change in vivo at 50 mg/kg: 50 mg/kg i.v. Format: in vivo.

The subject of another assay is guinea pig left auricles. Description: Isolated left auricles stimulated with 1 Hz, inotropic effect. Particulars: Cavia porcellus, read-out: Maximum effect in % of initial value, LEFT AURICLE INTROPIC; for Emax at 2 µg/mL: 2.0 μg/ml; for Emax at 4 µg/mL: 4.0 μg/ml; for Emax at 10 µg/mL: 10.0 μg/ml; for Emax at 20 µg/mL: 20.0 μg/ml; for Emax at 0.5 µg/mL: 0.5 μg/ml. As to the method:
as §1, §2

The mark [3] stands for this setting: read-out: BLOOD PRESSURE CHANGE AVERAGE PRESSURE (%).
Where [4] appears, read: read-out: CHANGE OF HEART FREQUENCY (%).

Structures are written as SMILES. Read-outs that look alike come from different tables or passages of the source.

As for `CCCN1CC[C@@H]2CC(=O)c3[nH]c4ccccc4c3C[C@@H]2C1` (relative stereo) [SI-WG 533], in assay [1], the Emax at 2 µg/mL is -15.9%, the Emax at 4 µg/mL was -26% and the Emax at 10 µg/mL is -34.1%. In assay [2] (setting [3]), the change in vivo at 5 mg/kg was -20.1%, the change in vivo at 10 mg/kg is -22.7% and the change in vivo at 20 mg/kg is -37.4%. Besides, in assay [2] (setting [4]), the change in vivo at 5 mg/kg is -9.7%, the change in vivo at 10 mg/kg is -17.9% and the change in vivo at 20 mg/kg is -19.8%. Moreover, in the assay with guinea pig left auricles, the Emax at 2 µg/mL amounted to 11.1%, the Emax at 4 µg/mL is 18.1% and the Emax at 10 µg/mL was determined as 17%.
For the compound `CC(=O)Nc1ccc2[nH]c3c(c2c1)C[C@@H]1CN(C)CC[C@@H]1CC3=O` (relative stereo) [SI-WG 604], in assay [1], the Emax at 10 µg/mL is -10.2% and the Emax at 20 µg/mL is -15.6%. For the same compound, in assay [1] (60.0 μg/ml), the Emax at 60 µg/mL was -24.7%. Moreover, in assay [2] (setting [3]), the change in vivo at 10 mg/kg is -10.7% and the change in vivo at 20 mg/kg is -15.6%. In the assay with guinea pig left auricles, the Emax at 10 µg/mL is 9.8% and the Emax at 20 µg/mL was determined as 8.2%. Moreover, the Emax at 60 µg/mL in the assay on guinea pig left auricles (60.0 μg/ml) came to 13.8%.
Turning to `COc1cccc2c3c([nH]c12)C(=O)C[C@H]1CCN(C)C[C@H]1C3` (relative stereo) [SI-WG 583], in assay [1], the Emax at 2 µg/mL was -16.1%, the Emax at 4 µg/mL was -23.7% and the Emax at 10 µg/mL was -30.3%. For the same compound, in assay [2] (setting [3]), the change in vivo at 2 mg/kg is 2.3%, the change in vivo at 5 mg/kg was -11.7% and the change in vivo at 10 mg/kg is -12%. For the same compound, in assay [2] (setting [4]), the change in vivo at 2 mg/kg was -3.4%, the change in vivo at 5 mg/kg was -10% and the change in vivo at 10 mg/kg is -11.2%. Also, in the assay with guinea pig left auricles, the Emax at 4 µg/mL is -5.1% and the Emax at 10 µg/mL is -14.9%.
`COc1cc2[nH]c3c(c2c(OC)c1OC)C[C@@H]1CN(C)CC[C@@H]1CC3=O` (relative stereo) [SI-WG 587]: in assay [1], the Emax at 4 µg/mL was -10.4%, the Emax at 10 µg/mL is -13.9% and the Emax at 20 µg/mL was -19.8%. In assay [2] (setting [3]), the change in vivo at 5 mg/kg was determined as 12.2% and the change in vivo at 10 mg/kg was determined as 11.6%. Also, the change in vivo at 10 mg/kg in assay [2] (setting [4]) was -4.8%. In the assay with guinea pig left auricles, the Emax at 4 µg/mL turned out to be 14.9%, the Emax at 10 µg/mL was 29.4% and the Emax at 20 µg/mL was 31.8%.
As for `CN1CC[C@@H]2CC(=O)c3[nH]c4ccc(F)cc4c3C[C@@H]2C1` (relative stereo) [SI-WG 419], in assay [1], the Emax at 0.5 µg/mL was -18%, the Emax at 2 µg/mL is -30%, the Emax at 4 µg/mL is -42% and the Emax at 10 µg/mL is -80%. Further, in assay [2] (setting [3]), the change in vivo at 2 mg/kg is -10.6%, the change in vivo at 5 mg/kg was -21.4% and the change in vivo at 10 mg/kg is -26.7%. Also, in assay [2] (setting [4]), the change in vivo at 2 mg/kg was -7.5%, the change in vivo at 5 mg/kg is -12.1% and the change in vivo at 10 mg/kg is -22.8%. In the assay on guinea pig left auricles, the Emax at 0.5 µg/mL worked out at 6%, the Emax at 2 µg/mL stood at 6%, the Emax at 4 µg/mL was -7% and the Emax at 10 µg/mL is -27%.
Turning to `CC(C)c1ccc2[nH]c3c(c2c1)C[C@@H]1CN(C)CC[C@@H]1CC3=O` (relative stereo) [SI-WG 454], in assay [1], the Emax at 2 µg/mL was -26.4%, the Emax at 10 µg/mL is -65.1% and the Emax at 20 µg/mL is -72.7%. Moreover, in assay [2] (setting [3]), the change in vivo at 1 mg/kg was -4.8%, the change in vivo at 2 mg/kg was -6.8% and the change in vivo at 5 mg/kg was -7.4%. Also, in assay [2] (setting [4]), the change in vivo at 1 mg/kg is -7.6%, the change in vivo at 2 mg/kg was -9% and the change in vivo at 5 mg/kg was -20.3%. Moreover, in the assay with guinea pig left auricles, the Emax at 2 µg/mL was -7.9%, the Emax at 10 µg/mL is -11.4% and the Emax at 20 µg/mL is -33.3%.
Take `CN1CC[C@@H]2CC(=O)c3[nH]c4cc5c(cc4c3C[C@@H]2C1)OCO5` (relative stereo) [SI-WG 562]: in assay [1], the Emax at 2 µg/mL is -11.3%, the Emax at 4 µg/mL is -15.7% and the Emax at 10 µg/mL is -31.8%. Further, in assay [2] (setting [3]), the change in vivo at 2 mg/kg is -3.4%, the change in vivo at 5 mg/kg is -9.4% and the change in vivo at 10 mg/kg is -12.4%. For the same compound, the change in vivo at 10 mg/kg in assay [2] (setting [4]) was -6%. In addition, in the assay on guinea pig left auricles, the Emax at 2 µg/mL was -4.1%, the Emax at 4 µg/mL was -6% and the Emax at 10 µg/mL was -7.4%.
Turning to `CN1CC[C@@H]2CC(=O)c3c(c4ccccc4n3C)C[C@@H]2C1` (relative stereo) [SI-WG 591], in assay [1], the Emax at 2 µg/mL is -20%, the Emax at 4 µg/mL was -31.9% and the Emax at 10 µg/mL is -43.9%. Also, in the assay on guinea pig left auricles, the Emax at 2 µg/mL came out at 11.8%, the Emax at 4 µg/mL was determined as 12% and the Emax at 10 µg/mL came out at 27.4%.
Consider `O=C1C[C@H]2CCNC[C@H]2Cc2c1[nH]c1ccccc21` (relative stereo) [SI-WG 422], for which, in assay [1], the Emax at 0.5 µg/mL was -6.7%, the Emax at 2 µg/mL is -19.3% and the Emax at 4 µg/mL is -36.1%. In assay [2] (setting [4]), the change in vivo at 10 mg/kg was -12.8% and the change in vivo at 20 mg/kg is -15.5%. Besides, the change in vivo at 20 mg/kg in assay [2] (setting [3]) was determined as 21.8%. In the assay with guinea pig left auricles, the Emax at 0.5 µg/mL is -4.2%, the Emax at 2 µg/mL was -12.2% and the Emax at 4 µg/mL is -14.9%.
Take `CC(=O)c1[nH]c2ccccc2c1CC1CN(C)CCC1=O` (centres unmarked) [SI-WG 331, 2-Acetyl-3-(N.methyl-4-'-piperidon-3'-ylmethyl)-indole]: in assay [1], the Emax at 2 µg/mL was -7%, the Emax at 10 µg/mL is -12% and the Emax at 20 µg/mL was -23%. Also, in assay [2] (setting [3]), the change in vivo at 20 mg/kg is -18.4% and the change in vivo at 50 mg/kg was -29.1%. Besides, in assay [2] (setting [4]), the change in vivo at 20 mg/kg was -9.7% and the change in vivo at 50 mg/kg was -19.3%. Also, in the assay with guinea pig left auricles, the Emax at 2 µg/mL turned out to be 8%, the Emax at 10 µg/mL was found to be 14% and the Emax at 20 µg/mL is 31%.
For `CN1CC[C@@H]2CC(=O)c3[nH]c4ccc(C(C)(C)C)cc4c3C[C@@H]2C1` (relative stereo) [SI-WG 578], in assay [1], the Emax at 2 µg/mL is -19.4%, the Emax at 4 µg/mL was -28.1% and the Emax at 10 µg/mL is -52.9%. In assay [2] (setting [4]), the change in vivo at 2 mg/kg was -6.2% and the change in vivo at 5 mg/kg is -10.2%. Also, in assay [2] (setting [3]), the change in vivo at 5 mg/kg came to 2%. In the assay on guinea pig left auricles, the Emax at 2 µg/mL was -3.6%, the Emax at 4 µg/mL was -12.1% and the Emax at 10 µg/mL is -10.9%.
As for `CN1CC=C2CC(=O)c3[nH]c4ccccc4c3CC2C1` (centres unmarked) [SI-WG 360, 1,3,5,7,12,12a-hexahydro-2-methyl-2H-pyrido [3',4':4,5]-cyclohept [1,2-b] indol-6-one], in assay [1], the Emax at 2 µg/mL is -10%, the Emax at 10 µg/mL is -29% and the Emax at 20 µg/mL is -41%. Besides, in assay [2] (setting [3]), the change in vivo at 2 mg/kg was -10.3%, the change in vivo at 5 mg/kg is -23% and the change in vivo at 10 mg/kg is -34.2%. Besides, in assay [2] (setting [4]), the change in vivo at 2 mg/kg is -10.7%, the change in vivo at 5 mg/kg is -14.3% and the change in vivo at 10 mg/kg is -22.2%. In the assay with guinea pig left auricles, the Emax at 2 µg/mL was determined as 17%, the Emax at 10 µg/mL was found to be 39% and the Emax at 20 µg/mL was determined as 50%.
